Assay results published in US20260130901A1, “CGRP RECEPTOR ANTAGONIST FOR THE TREATMENT OF MIGRAINE” (ALLERGAN PHARMACEUTICALS INTERNATIONAL LIMITED, priority 2022, published 2026).

Tests used:
Type in all cases: in vivo, human
[1] = test system: participants with migraine (qualifying prodrome events); experiment: Phase 3 crossover study: activity limitation at 24 hours; settings: 100 mg in prodrome, at 24 hours post-dose
Description: (§1) A phase 3, multicenter, randomized, double-blind, placebo-controlled, crossover study was carried out to evaluate the efficacy, safety, and tolerability of oral ubrogepant in the acute treatment of migraine when administered during the prodrome. The study evaluated whether treatment during the initial phase of a migraine attack (i.e., the prodrome or premonitory phase) prior to the onset of headache, can attenuate the severity of the headache phase and reduce disability.
(§2) Eligible participants were randomized (1:1) to treatment sequences A or B in this crossover study. Participants randomized to Treatment Sequence A received placebo to treat their first qualifying prodrome event and ubrogepant 100 mg to treat their second qualifying prodrome event. For those randomized to Treatment Sequence B, they received the reverse: ubrogepant 100 mg to treat their first qualifying prodrome event and placebo to treat their second qualifying prodrome event.

[2] = test system: participants with migraine (qualifying prodrome events); experiment: Phase 3 crossover study: absence of headache after treatment during the prodrome
Description: as §1
Eligible participants were able to treat two qualifying prodrome events, defined as a migraine attack with prodromal symptoms in which the participant was confident a headache would follow within 1-6 hours.
The primary endpoint was absence of moderate or severe intensity headache within 24 hours post-dose. Secondary endpoints were absence of moderate/severe intensity headache within 48 hours, ability to function normally over 24 hours, and absence of headache of any intensity within 24 hours post-dose.
The trial enrolled adults with 2-8 migraine attacks per month who stated that they could identify migraine attacks with prodromal symptoms reliably followed by headache. Using an e-diary, participants reported qualifying events, defined as a migraine attack with prodromal symptoms in which the participant was confident a headache would follow within 1-6 hours.
as §2
The primary efficacy endpoint was the absence of a headache of moderate/severe intensity within 24 hours after taking double-blind study intervention during the prodrome. The secondary efficacy endpoints were the absence of a headache of moderate or severe intensity within 48 hours, ability to function normally over 24 hours, and absence of a headache of any intensity within 24 hours after taking double blind study interventions during the prodrome.
The overall study design is illustrated in FIG. 1. […] After meeting eligibility criteria, randomized participants were to treat two qualifying prodrome events with study intervention during the double-blind treatment period (between Visit 2 and Visit 4) (up to 60 days), separated by a clinic visit (visit 3) to ensure a minimum 7-day washout period. A post-treatment visit (visit 4) followed four days after the last treatment was taken.
To be eligible for study participation, participants must be 18 to 75 years of age (inclusive) at Visit 1, have at least a 1-year history of migraine with or without aura consistent with diagnosis according to the ICHD-3 (2018), and experience 2 to 8 migraine attacks with moderate to severe headache per month by history in each of the 3 months prior to screening. At the screening visit, participants were asked whether they could identify prodromal symptoms followed by migraine headache within 1 to 6 hours at least 75% of the time. […] After the screening period, to be eligible for randomization, the participant needed to record 3 to 16 qualifying prodrome events with at least 75% of these events followed by a headache, of any intensity, within 1 to 6 hours.
Participants were excluded if they had difficulty distinguishing migraine from tension-type or other headache types, or if they had chronic migraine, a trigeminal autonomic cephalalgia, or a painful cranial neuropathy. Participants who overused medication for migraine or had previous exposure to an injectable anti-CGRP monoclonal antibody within the previous 3 months were also excluded.
Participant flow is illustrated in FIG. 2. […]

[3] = test system: participants with migraine (qualifying prodrome events); experiment: Phase 3 crossover study: satisfaction with study medication; settings: 100 mg in prodrome
Description: as §1, §2

[4] = 100 mg in prodrome, within 1 hour, mITT, observed cases
[5] = 100 mg in prodrome, within 2 hours, mITT, observed cases
[6] = 100 mg in prodrome, within 3 hours, mITT, observed cases
[7] = 100 mg in prodrome, within 4 hours, mITT, observed cases
[8] = 100 mg in prodrome, within 6 hours, mITT, observed cases
[9] = 100 mg in prodrome, within 8 hours, mITT, observed cases
[10] = 100 mg in prodrome, within 24 hours, mITT, observed cases
[11] = 100 mg in prodrome, within 24 hours, mITT, observed cases (primary analysis)
[12] = 100 mg in prodrome, within 24 hours, sensitivity analysis: Period 1 data only
[13] = 100 mg in prodrome, within 24 hours, sensitivity analysis: non-responder imputation
[14] = 100 mg in prodrome, within 24 hours, sensitivity analysis: testing carryover effect
[15] = 100 mg in prodrome, within 48 hours, mITT, observed cases

## C[C@@H]1[C@H](c2ccccc2)C[C@H](NC(=O)c2cnc3c(c2)C[C@@]2(C3)C(=O)Nc3ncccc32)C(=O)N1CC(F)(F)F [Ubrogepant, (3′S)—N-((3S,5S,6R)-6-methyl-2-oxo-5-phenyl-1-(2,2,2-trifluoroethyl)piperidin-3-yl)-2′-oxo-1′,2′,5,7-tetrahydrospiro[cyclopenta[b]pyridine-6,3′-pyrrolo[2,3-b]pyridine]-3-carboxamide]
[1]
  Activity limitation, Odds ratio vs placebo: 2.07
  Activity limitation, Responders (%) (not at all limited or a little limited): (65.4) %
[1]; listed as ubrogepant
  Activity limitation, Responders (%) (not at all limited or a little limited): 65.4%
[2]; [4]
  Absence of a headache of any intensity, Nonresponder (%): (42.9) %
  Absence of a headache of any intensity, Odds Ratio vs. Placebo: 1.19
  Absence of a headache of any intensity, Responder (%): (57.1) %
  Absence of a headache of moderate/severe intensity, Nonresponder (%): (22.9) %
  Absence of a headache of moderate/severe intensity, Odds Ratio vs. Placebo: 1.30
  Absence of a headache of moderate/severe intensity, Responder (%): (77.1) %
  Absence of a headache of severe intensity, Nonresponder (%): (4.0) %
  Absence of a headache of severe intensity, Odds Ratio vs. Placebo: 1.21
  Absence of a headache of severe intensity, Responder (%): (96.0) %
[2]; [5]
  Absence of a headache of any intensity, Nonresponder (%): (55.7) %
  Absence of a headache of any intensity, Odds Ratio vs. Placebo: 1.34
  Absence of a headache of any intensity, Responder (%): (44.3) %
  Absence of a headache of moderate/severe intensity, Nonresponder (%): (35.4) %
  Absence of a headache of moderate/severe intensity, Odds Ratio vs. Placebo: 1.31
  Absence of a headache of moderate/severe intensity, Responder (%): (64.6) %
  Absence of a headache of severe intensity, Nonresponder (%): (7.4) %
  Absence of a headache of severe intensity, Odds Ratio vs. Placebo: 1.33
  Absence of a headache of severe intensity, Responder (%): (92.6) %
[2]; [6]
  Absence of a headache of any intensity, Nonresponder (%): (62.5) %
  Absence of a headache of any intensity, Odds Ratio vs. Placebo: 1.60
  Absence of a headache of any intensity, Responder (%): (37.5) %
  Absence of a headache of moderate/severe intensity, Nonresponder (%): (39.9) %
  Absence of a headache of moderate/severe intensity, Odds Ratio vs. Placebo: 1.71
  Absence of a headache of moderate/severe intensity, Responder (%): (60.1) %
  Absence of a headache of severe intensity, Nonresponder (%): (9.4) %
  Absence of a headache of severe intensity, Odds Ratio vs. Placebo: 1.41
  Absence of a headache of severe intensity, Responder (%): (90.6) %
[2]; [7]
  Absence of a headache of any intensity, Nonresponder (%): (67.3) %
  Absence of a headache of any intensity, Odds Ratio (95% CI) vs. Placebo: 1.76 (1.35, 2.30)
  Absence of a headache of any intensity, Responder (%): (32.7) %
  Absence of a headache of moderate/severe intensity, Nonresponder (%): (41.5) %
  Absence of a headache of moderate/severe intensity, Odds Ratio vs. Placebo: 1.91
  Absence of a headache of moderate/severe intensity, Responder (%): (58.5) %
  Absence of a headache of severe intensity, Nonresponder (%): (10.5) %
  Absence of a headache of severe intensity, Odds Ratio vs. Placebo: 1.70
  Absence of a headache of severe intensity, Responder (%): (89.5) %
[2]; [8]
  Absence of a headache of any intensity, Nonresponder (%): (71.0) %
  Absence of a headache of any intensity, Odds Ratio vs. Placebo: 1.79
  Absence of a headache of any intensity, Responder (%): (29.0) %
  Absence of a headache of moderate/severe intensity, Nonresponder (%): (46.6) %
  Absence of a headache of moderate/severe intensity, Odds Ratio vs. Placebo: 1.86
  Absence of a headache of moderate/severe intensity, Responder (%): (53.4) %
  Absence of a headache of severe intensity, Nonresponder (%): (12.5) %
  Absence of a headache of severe intensity, Odds Ratio vs. Placebo: 1.77
  Absence of a headache of severe intensity, Responder (%): (87.5) %
[2]; [9]
  Absence of a headache of any intensity, Nonresponder (%): (72.5) %
  Absence of a headache of any intensity, Odds Ratio vs. Placebo: 1.85
  Absence of a headache of any intensity, Responder (%): (27.5) %
  Absence of a headache of moderate/severe intensity, Nonresponder (%): (48.2) %
  Absence of a headache of moderate/severe intensity, Odds Ratio vs. Placebo: 2.01
  Absence of a headache of moderate/severe intensity, Responder (%): (51.8) %
  Absence of a headache of severe intensity, Nonresponder (%): (13.1) %
  Absence of a headache of severe intensity, Odds Ratio vs. Placebo: 1.89
  Absence of a headache of severe intensity, Responder (%): (86.9) %
[2]; [10]
  Absence of a headache of any intensity, Nonresponder (%): (76.3) %
  Absence of a headache of any intensity, Odds Ratio vs. Placebo: 1.93
  Absence of a headache of any intensity, Responder (%): (23.7) %
  Absence of a headache of severe intensity, Nonresponder (%): (14.5) %
  Absence of a headache of severe intensity, Odds Ratio vs. Placebo: 1.83
  Absence of a headache of severe intensity, Responder (%): (85.5) %
[2]; [11]
  Absence of a headache of moderate/severe intensity, Nonresponder (%): (54.5) %
  Absence of a headache of moderate/severe intensity, Odds Ratio vs. Placebo: 2.09
  Absence of a headache of moderate/severe intensity, Responder (%): (45.5) %
[2]; 100 mg in prodrome, within 24 hours, mITT, observed cases (primary analysis), listed as ubrogepant
  Absence of a headache of moderate/severe intensity, Responder (%): 45.5%
[2]; 100 mg in prodrome, within 24 hours, mITT, observed cases, listed as ubrogepant
  Absence of a headache of any intensity, Responder (%): 23.7%
[2]; [12]
  Absence of a headache of moderate/severe intensity, Nonresponder (%): (52.6) %
  Absence of a headache of moderate/severe intensity, Odds Ratio vs. Placebo: 2.11
  Absence of a headache of moderate/severe intensity, Responder (%): (47.4) %
[2]; [13]
  Absence of a headache of moderate/severe intensity, Nonresponder (%): (57.6) %
  Absence of a headache of moderate/severe intensity, Odds Ratio vs. Placebo: 2.01
  Absence of a headache of moderate/severe intensity, Responder (%): (42.4) %
[2]; [14]
  Absence of a headache of moderate/severe intensity, Nonresponder (%): (54.5) %
  Absence of a headache of moderate/severe intensity, Odds Ratio vs. Placebo: 2.09
  Absence of a headache of moderate/severe intensity, Responder (%): (45.5) %
[2]; [15]
  Absence of a headache of any intensity, Nonresponder (%): (81.4) %
  Absence of a headache of any intensity, Odds Ratio vs. Placebo: 1.90
  Absence of a headache of any intensity, Responder (%): (18.6) %
  Absence of a headache of moderate/severe intensity, Nonresponder (%): (59.3) %
  Absence of a headache of moderate/severe intensity, Odds Ratio vs. Placebo: 2.13
  Absence of a headache of moderate/severe intensity, Responder (%): (40.7) %
  Absence of a headache of severe intensity, Nonresponder (%): (17.4) %
  Absence of a headache of severe intensity, Odds Ratio vs. Placebo: 1.71
  Absence of a headache of severe intensity, Responder (%): (82.6) %
[2]; 100 mg in prodrome, within 48 hours, mITT, observed cases, listed as ubrogepant
  Absence of a headache of moderate/severe intensity, Responder (%): 40.7%
[2]; administered during the prodrome
  Reducing the development of moderate/severe headache within 24 and 48 hours and of headache of any intensity within 24 hours: superior to placebo
[3]; 8 Hours post-dose
  Satisfaction with study medication, Odds ratio vs placebo: 2.37
  Satisfaction with study medication, responder rate (%) (satisfied or extremely satisfied): (66.0) %
[3]; 24 Hours post-dose
  Satisfaction with study medication, Odds ratio vs placebo: 2.32
  Satisfaction with study medication, responder rate (%) (satisfied or extremely satisfied): (65.6) %
[3]; 24 Hours post-dose, listed as ubrogepant
  Satisfaction with study medication, responder rate (%) (satisfied or extremely satisfied): 65.6%
